In PubChem BioAssay (NCI):
“And” between values parts separate entries of the source, which are not always exact repeats. Equal values may be shown once.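 48-hour exposure; five concentrations; linearly interpolated endpoints. GI50 marks 50% less growth. TGI: total growth inhibition.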

Experiments:
Assay in all cases: NCI tumour cell line growth inhibition, 48 h
[1] = system: DMS 273 small cell lung
[2] = system: M19-MEL melanoma
[3] = system: P388 leukemia
[4] = system: P388/ADR leukemia
[5] = system: PC-3 prostate
[6] = system: SN12K1 renal
[7] = system: SNB-78 CNS
[8] = system: MDA-N
[9] = system: XF 498 CNS

| SMILES | TGI [1] [µM] | TGI [2] | TGI [3] [µM] | TGI [4] [µM] | GI50 [5] [µM] | TGI [5] [µM] | TGI [6] [µM] | TGI [7] [µM] | GI50 [2] [µM] | GI50 [8] [µM] | TGI [8] [µM] | GI50 [7] [µM] | GI50 [9] [µM] | TGI [9] |
| --- | --- | --- | --- | --- | --- | --- | --- | --- | --- | --- | --- | --- | --- | --- |
| Nc1nc(Cl)nc2c1ncn2C1CC(O)C(CO)O1 (configuration not stated) | 47.1 | > 100 µM | 0.498 | > 100 | > 100 | > 100 | > 24.9 | > 100 | – | – | – | – | – | – |
| NC(=S)N/N=C/c1ncccc1O | 5.96 | 16.9 µM and 39.7 µM | 1.26 | > 1000 | 0.895 | > 1000 | 13.7 | > 1000 | 3.48 | 1.9 | > 853 | 64.7 | 4.88 | 39.7 µM and 5.52 µM |
